Data on one compound can be found in patent US5703097A, “5-pyrrolyl-2-pyridylmethylsulfinyl benzimidazole derivatives” (priority 1994, dated 1997).

A word on the ED50: it is the dose that gives a 50% effect, or the effect in half of the subjects. In general, LD50 refers to the dose at which mortality reaches 50%. What is called IC50 is the point on the concentration scale where inhibition reaches its midpoint. A high value points to weaker potency.

One data set deals with gastric acidity. Kind of data set: Effect on inhibition of acidity (total acid output), in vivo, Shay method (TEST 2). Also noted: species or system rat (SD male rats). The conditions noted are these: for Volume (acidity, total acid output) / Inhibition rate, acidity: 5 hours; for Volume (acidity, total acid output): pylorus-ligated rats; for Inhibition rate, acidity: vs normal group. As for the experimental part:
(§1) The specific test methods are as follows.
(§2) SD male rats (200±20 g) were fasted for 24 hours, except for water, and then anesthesized with ether. The abdomen of rats was incised and then the pylorus was ligated. The test compounds were suspended or dissolved in 5% CMC (carboxymethylcellulose) and injected into duodenum. After the abdomen was sutured, the rats were allowed to stand for 5 hours and then sacrificed with ether. The stomach was removed from rats and the gastric juices were collected. The gastric juice was centrifuged with 10,000 xg for 10 minutes at 4° C. to remove the precipitate. The amount of gastric juice and acidity were determined using pH 7.0 end point assay with 0.02N NaOH and then the total acid output was calculated.

In the next data set the test system is gastric juice secretion. Kind of data set: Effect on inhibition of gastric juice secretion, in vivo, Shay method (TEST 2). Also noted: species or system rat (SD male rats). The conditions noted are these: for Volume of gastric juice / Inhibition rate, gastric juice secretion: 5 hours; for Volume of gastric juice: pylorus-ligated rats; for Inhibition rate, gastric juice secretion: vs normal group. As for the experimental part: as §1, §2

The next data set can be described thus: in vivo. The conditions noted are these: mouse, po. The method, then: (§3) Five weeks aged ICR (male, female) mouse were pre-bred in the breeding cage for one week and then the animals showing a smooth gain in body weight were randomly selected and used in this test. The amount to be administered to the test animals was established on the basis of the maximum dose of 4,000 mg/kg with the common ratio of 1.5.
(§4) The test compounds in a powder form were suspended in 0.5% methylcellulose and administered per oral using a syringe. The other specific conditions for administration are described in the following.
(§5) In the above test, the control group received only 0.5% methylcellulose.

The next data set relates to ICR (male, female) mouse. Kind of data set: in vivo. The conditions noted are these: po. The method, then:
as §3, §4, §5

In another data set the target is T1, H^+ /K^+ -ATPase (Oryctolagus cuniculus, UniProt P27112).
T1 construct: The gastric mucous membrane was removed from a rabbit; from tissue; host or cells: rabbit gastric mucosa, microsomal fraction (77,000 g)
T1 sequence (P27112 2-1035 limits assumed): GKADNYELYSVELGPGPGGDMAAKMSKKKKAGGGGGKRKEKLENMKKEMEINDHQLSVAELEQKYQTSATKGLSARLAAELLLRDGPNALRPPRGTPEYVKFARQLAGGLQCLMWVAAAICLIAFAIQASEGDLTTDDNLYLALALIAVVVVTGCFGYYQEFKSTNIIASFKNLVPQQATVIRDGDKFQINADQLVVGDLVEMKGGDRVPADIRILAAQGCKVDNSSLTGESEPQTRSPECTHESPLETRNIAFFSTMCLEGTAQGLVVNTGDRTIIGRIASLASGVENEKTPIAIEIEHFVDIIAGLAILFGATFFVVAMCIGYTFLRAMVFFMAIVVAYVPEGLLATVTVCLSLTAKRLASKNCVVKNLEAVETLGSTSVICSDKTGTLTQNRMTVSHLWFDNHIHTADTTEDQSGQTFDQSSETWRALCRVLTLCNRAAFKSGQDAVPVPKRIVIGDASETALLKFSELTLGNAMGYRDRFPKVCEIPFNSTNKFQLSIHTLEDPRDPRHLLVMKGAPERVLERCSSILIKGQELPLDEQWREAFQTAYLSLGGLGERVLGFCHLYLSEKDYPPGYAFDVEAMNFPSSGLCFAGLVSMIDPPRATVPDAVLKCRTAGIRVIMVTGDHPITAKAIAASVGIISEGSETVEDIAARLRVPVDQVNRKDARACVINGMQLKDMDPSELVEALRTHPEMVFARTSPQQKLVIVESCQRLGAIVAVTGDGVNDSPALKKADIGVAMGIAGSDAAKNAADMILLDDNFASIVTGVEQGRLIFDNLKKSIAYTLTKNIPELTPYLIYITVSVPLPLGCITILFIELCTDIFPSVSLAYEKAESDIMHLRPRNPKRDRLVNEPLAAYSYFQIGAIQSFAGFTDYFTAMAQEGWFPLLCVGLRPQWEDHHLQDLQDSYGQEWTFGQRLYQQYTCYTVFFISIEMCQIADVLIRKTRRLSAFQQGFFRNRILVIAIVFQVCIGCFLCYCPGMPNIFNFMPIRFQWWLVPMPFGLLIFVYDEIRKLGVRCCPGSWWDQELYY
T1 sequence (P18597 whole entry partner): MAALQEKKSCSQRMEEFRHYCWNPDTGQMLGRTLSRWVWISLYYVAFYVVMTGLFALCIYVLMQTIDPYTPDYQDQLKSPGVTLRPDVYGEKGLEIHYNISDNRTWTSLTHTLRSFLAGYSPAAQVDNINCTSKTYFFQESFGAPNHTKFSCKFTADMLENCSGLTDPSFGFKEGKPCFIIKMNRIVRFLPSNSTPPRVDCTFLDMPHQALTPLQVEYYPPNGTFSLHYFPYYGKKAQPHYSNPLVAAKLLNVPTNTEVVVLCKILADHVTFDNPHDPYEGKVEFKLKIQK
Description: Inhibition of enzyme activity: in vitro inhibition of H+/K+-ATPase (TEST 1). Type of data set: biochemical, rabbit. As to conditions: 5 min pre-incubation at 37° C., 4 mM ATP. The method, then:
In this test, omeprazole [5-methoxy-2-[[(4-methoxy-3,5-dimethyl-2-pyridinyl)methyl]sulfinyl]-1H-benzimidazole] was used as the control compound.
The gastric mucous membrane was removed from a rabbit and then centrifuged with 77,000 g using a ultra-centrifuge to separate the microsomal fraction which was used as the source of H^+ /K^+ -ATPase enzyme for this test. 60 μg of H^+ /K^+ -ATPase was pre-incubated with the sample (the compound according to the present invention) for 5 minutes at 37° C. and then 4 mM ATP as the substrate and 4 mM Mg^++, 20 mM K^+ as the cofactor were added thereto. Then, the amount of inorganic phosphorus thus produced was determined using a spectrophotometer at 660 nm and converted into the amount of protein. […]

[1] abbreviates: in words, even at a lower dose than that of the known anti-ulcer agent.

Structures are written as SMILES. Bounds are passed on as bounds.

Turning to `COc1ccnc(C[S+]([O-])c2nc3cc(-n4cccc4)ccc3[nH]2)c1C` (stereo not drawn) [Compound 2, 2-[[(4-methoxy-3-methyl)-2-pyridinyl]methylsulfinyl]-5-(1H-pyrrol-1-yl)-1H-benzimidazole], the “Volume (acidity, total acid output)” value came to 31.09 ± 4.10 μ Eq/hr with gastric acidity (3 mg/kg, into duodenum); 10.20 ± 1.93 μ Eq/hr with gastric acidity (10 mg/kg, into duodenum); 5.32 ± 3.30 μ Eq/hr with gastric acidity (30 mg/kg, into duodenum). For the same compound, the “Inhibition rate, acidity” value with gastric acidity (3 mg/kg, into duodenum) came out at 60.08%; with gastric acidity (10 mg/kg, into duodenum), 86.90%; in the data set on gastric acidity (30 mg/kg, into duodenum), 93.17%. In addition, the median effective dose (ED50) in the data set on gastric acidity (Rattus norvegicus, 5 h, rats, into duodenum) turned out to be 1.6 mg/kg; in the data set on gastric juice secretion (Rattus norvegicus, 5 h, rats, into duodenum, read-out: ED50 for the effect on inhibition of gastric acid secretion) it was 3.6 mg/kg. Besides, the “effect for lowering acidity” value in the data set on gastric acidity (in words) is “good effects”. For the same compound, the acidity lowering effect entry with gastric acidity (setting [1]) is listed as “high acidity lowering effect”. In addition, the “Volume of gastric juice” value in the data set on gastric juice secretion (3 mg/kg, into duodenum) stood at 1.98 ± 0.23 ml/100 g BW; in the data set with gastric juice secretion (10 mg/kg, into duodenum), 1.31 ± 0.10 ml/100 g BW; in the data set on gastric juice secretion (30 mg/kg, into duodenum) it was 0.99 ± 0.14 ml/100 g BW. In addition, the “Inhibition rate, gastric juice secretion” value is reported as 46.45% with gastric juice secretion (3 mg/kg, into duodenum); 64.55% in the data set on gastric juice secretion (10 mg/kg, into duodenum); 73.11% in the data set on gastric juice secretion (30 mg/kg, into duodenum). Moreover, the “effect for inhibition of gastric acid secretion” value with gastric juice secretion (in words) is “good effects”. In addition, the “inhibition of gastric juice secretion” value with gastric juice secretion (setting [1]) was “strong inhibition of gastric juice secretion”. Moreover, the LD50 in “in vivo” was no less than 4000 mg/kg; in the data set on ICR (male, female) mouse, greater than 4000.0 mg/kg. Also, the “change in body weight” value in the data set on ICR (male, female) mouse is “does not affect the normal change in body weight”. The “change in internal and external organs” value with ICR (male, female) mouse was “no effect on the internal and external organs”. Also, the safety entry in the data set on ICR (male, female) mouse is “very safe compound”. Also, the half-maximal inhibitory concentration (IC50) at H^+ /K^+ -ATPase came to 23 µM.
